We go through 21 compounds from patent US20260234139A1, “PGDH INHIBITORS AND METHODS OF MAKING AND USING” (Epirium Bio Inc., priority 2023, published 2026).

One assay has as its target T1, 15-PGDH/HPGD (Homo sapiens, UniProt P15428).
T1 construct: purchased R&D System 5660-DH
T1 sequence (P15428 1-266): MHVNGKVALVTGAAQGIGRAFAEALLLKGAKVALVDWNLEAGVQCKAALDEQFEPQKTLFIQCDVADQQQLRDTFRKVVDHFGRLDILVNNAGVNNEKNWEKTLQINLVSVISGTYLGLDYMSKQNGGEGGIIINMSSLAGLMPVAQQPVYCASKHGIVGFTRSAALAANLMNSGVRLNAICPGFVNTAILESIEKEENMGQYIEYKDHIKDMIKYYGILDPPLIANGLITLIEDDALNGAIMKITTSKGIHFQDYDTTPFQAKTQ
The assay is described as follows: hPGDH inhibitor screening biochemical assay. The conditions noted are these: 10 nM enzyme, 15 μM Prostaglandin E2, 0.25 mM NAD, fluorescence ex/em 340/485 nm. In outline:
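Recombinant 15-PGDH (10 nM) preincubated with compound 10 min at 37° C, then 15 μM PGE2 and 0.25 mM NAD⁺ added for 10 min at room temperature in 50 mM Tris-HCl pH 7.5, 0.01% Tween 20. NADH fluorescence at ex/em 340/485 nm; 10-point dose response.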

In another assay the test system is A549. The assay is described as follows: A549 EC50 (cell assay, method not described). In kind it is cell-based. As to conditions: Homo sapiens, A549, A549.

pEC50, pIC50: −log10 of the molar value.

What is called pIC50 is the negative decadic logarithm of the IC50, by convention in mol/L. Read a high pIC50 as a low IC50. Broadly, the pEC50 is −log10 of the EC50, conventionally taken in molar units. Low values mean a large EC50, high ones a small EC50. The compound `CC1(OC[C@@H](O)c2cnc3c(cnn3-c3ccc(C(=O)O)cc3)c2)CC1` [Compound 92B] had a negative-log IC50 (pIC50) against 15-PGDH/HPGD of more than 7.00. The pEC50 with A549 is more than 7.00.
For `O[C@@H](COC1CCC1)c1cnc2c(cnn2-c2ccc(N3CCCC3)cc2)c1` [Compound 75B], the pIC50 on 15-PGDH/HPGD is not above 6.00. The same compound gave a pEC50 in the assay on A549 not above 6.00.
For the compound `O[C@@H](COC1CCC1)c1cnc2c(cnn2-c2cncc(-c3nnc[nH]3)c2)c1` [Compound 117A], at 15-PGDH/HPGD, the pIC50 was more than 7.00. The same compound showed a pEC50 with A549 of more than 7.00.
Turning to `O=C(O)c1ccc(-n2ncc3cc([C@H](O)COC4CCCC4)cnc32)cc1` [Compound 89B], the pIC50 against 15-PGDH/HPGD was more than 7.00. The compound also gave a pEC50 in the assay with A549 of more than 7.00.
On 15-PGDH/HPGD, `CNC(=O)c1cccc(-n2ncc3cc([C@H](O)COC4CCC4)cnc32)c1` [Compound 110B] had a pIC50 not above 6.00. Moreover, the pEC50 with A549 was not above 6.00.
Turning to `CC(C)OC[C@H](O)c1cnc2c(cnn2-c2ccc(OCC(=O)O)c(F)c2)c1` [Compound 74B], the pIC50 against 15-PGDH/HPGD is 6.00 to 7.00. Besides, in the assay with A549, the pEC50 was not above 6.00.
For `CC(C)OC[C@H](O)c1cnc2c(cnn2-c2ccc(CC(=O)O)cc2)c1` [Compound 71B], in that order: not above 6.00 and not above 6.00.
The corresponding values for `CCOC1([C@H](O)c2cnc3c(cnn3-c3cccc(-c4nnc[nH]4)c3)c2)CCC1` [Compound 83A] are 6.00 to 7.00 and 6.00 to 7.00.
In the case of `CCCC[C@@H](O)c1cnc2c(ccn2-c2cc(Cl)cc(-c3nnc[nH]3)c2)c1` [Compound 17A], on 15-PGDH/HPGD, the pIC50 was more than 7.00. The compound also had a pEC50 in the assay with A549 of more than 7.00.
In the case of `O[C@@H](c1cnc2c(cnn2-c2cccc(-c3nnc[nH]3)c2)c1)C1C2CCCCC21` (stereo partly drawn) [Compound 51B], the pIC50 on 15-PGDH/HPGD is 6.00 to 7.00. In the assay with A549, this compound had a pEC50 of 6.00 to 7.00.
Compound `O=C(O)c1ccc(-n2ncc3cc([C@@H](O)COC4CCCC4)cnc32)cc1` [Compound 89A] showed a pIC50 at 15-PGDH/HPGD of more than 7.00. In the assay on A549, the pEC50 is not above 6.00.
On to `CC(C)NC[C@@H](O)c1cnc2c(cnn2-c2cccc(-c3nnc[nH]3)c2)c1` [Compound 27B, (S)-1-(1-(3-(4H-1,2,4-triazol-3-yl)phenyl)-1H-pyrazolo[3,4-b]pyridin-5-yl)-2-(isopropylamino) ethan-1-ol], for which the pIC50 against 15-PGDH/HPGD was more than 7.00. Besides, the pEC50 with A549 was 6.00 to 7.00.
The corresponding values for `CSc1cccc(-n2ncc3cc([C@H](O)COC4CCC4)cnc32)c1` [Compound 122B] are not above 6.00 and not above 6.00.
For `CCCC(F)(F)[C@H](O)c1cnc2c(ccn2-c2cccc(-c3nnc[nH]3)c2)n1` [Compound 35B], in that order: 6.00 to 7.00 and not above 6.00.
As to `CC(C)CC[C@H](O)c1cnc2c(ccn2-c2ccc(C(=O)O)cc2)n1` [Compound 40A], the pIC50 against 15-PGDH/HPGD was more than 7.00. Further, the pEC50 in the assay on A549 was more than 7.00.
`CCOC1([C@H](O)c2cnc3c(cnn3-c3ccc4nc(N5CCOCC5)nn4c3)c2)CC1` [Compound 62A] had a pIC50 at 15-PGDH/HPGD not above 6.00. This compound also gave a pEC50 with A549 not above 6.00.
On to `O=C(O)c1ccc(-n2ncc3cc([C@@H](O)COC4CCC4)cnc32)cc1` [Compound 42A, (R)-4-(5-(2-cyclobutoxy-1-hydroxyethyl)-1H-pyrazolo[3,4-b]pyridin-1-yl)benzoic acid], for which, at 15-PGDH/HPGD, the pIC50 was more than 7.00. For the same compound, the pEC50 in the assay with A549 is not above 6.00.
Take `O[C@H](c1cnc2c(cnn2-c2cccc(-c3nnc[nH]3)c2)c1)C1(OCC(F)F)CC1` [Compound 73A]: the pIC50 against 15-PGDH/HPGD was more than 7.00. For the same compound, in the assay on A549, the pEC50 is 6.00 to 7.00.
In turn, `CCCCC(C)(O)c1cnc2c(ccn2-c2cc(Cl)cc(-c3nnc[nH]3)c2)c1` (stereo not drawn) [Compound 15] had a pIC50 at 15-PGDH/HPGD of 6.00 to 7.00. For the same compound, the pEC50 in the assay on A549 was not above 6.00.
Turning to `CN(C)C[C@H](O)c1cnc2c(cnn2-c2cccc(-c3nnc[nH]3)c2)c1` [Compound 25A], the pIC50 at 15-PGDH/HPGD is 6.00 to 7.00. For the same compound, the pEC50 in the assay with A549 is not above 6.00.
As to `CSc1ccc(-n2ncc3cc([C@@H](O)COC4CCC4)cnc32)cc1` [Compound 119A], the pIC50 on 15-PGDH/HPGD was more than 7.00. Besides, the negative logarithm of the EC50 (pEC50) in the assay on A549 is 6.00 to 7.00.
